Key:
WM1366 [1] = assay: MTT cell viability assay of SEMEs and excipients (60 min); assay type: cell-based, human; conditions: WM1366, 60 min incubation; mean (95% CI), n = 5; >Max Conc. = not reaching the sensitive range
Protocol: (§1) Human melanoma cell lines (WM164, WM1366, and D24), spontaneously immortalized normal human keratinocytes (HaCaT), and primary skin fibroblast cells were kindly provided by A/Prof. Helmut Schaider’s laboratory (University of Queensland Diamantina Institute). The cells were grown in RPMI medium (+ L-glutamine) supplemented with 5% (v/v) FBS and 2% penicillin/streptomycin—except for the fibroblast cells which were cultured in DMEM. Cells were routinely grown in culture flasks and maintained at 37 °C in a humidified 5% CO2 atmosphere. The culture media was replaced with fresh media every two to three days. Cells were detached using trypsin–EDTA when they reached approximately 80% confluence to seed or subculture. A low passage number (6–12) of primary fibroblast was used during the experiments, and regular microbial contamination testing was done.
(§2) To exclude any toxic effect of the blank SEMEs and their constituents on human skin cells, an MTT cell viability test was performed based on the original protocol. In this assay, the yellow tetrazolium salt MTT is reduced to insoluble purple formazan crystals by metabolically live cells.
(§3) After 60 min incubation of treated cells, the excipient-containing medium was removed, and 100 μL of MTT in PBS (5 mg/mL) diluted 1:10 in medium was then added. Plates were further incubated in the dark for 2–3 h, after which time the wells were emptied and the purple formazan was dissolved by addition of 200 μL of DMSO to each well. Plates were located in a shaker for 5 min at room temperature and the absorbance of the solutions in the wells was measured at 570 nm using a microplate reader (Multiskan™ FC Microplate Photometer). The impact of each treatment was determined as the percentage of reduced tetrazolium salt against the control cells (untreated cells with medium only).
(§4) The cytotoxicity at each excipient concentration was expressed as a percentage of viability against the untreated control wells (the mean optical density of untreated cells was set at 100% viability) to construct a dose-dependent cytotoxicity plot.
(§5) The percentage viability was calculated as follows (Equation (1)):(1) % Viability= Mean absorbance of treated wells/Mean absorbance of control wellno excipients ×100.
(§6) The cytotoxicity of the excipients and formulations (treatments) was expressed as an IC50 value (concentration causing 50% death of the cell population). The IC50 value for each treatment concentration was calculated from the dose–response curves plotted in GraphPad Prism 7 (GraphPad Software Inc. California, USA) with log (treatment concentration) on the x-axis and percentage survival on the y-axis. The IC50 value was obtained by fitting the dose–response curve with a nonlinear regression curve (Dose-response-inhibition) on GraphPad Prism 7. […] All IC50 values were expressed as v/v (%).

WM164 [2] = assay: as above; assay type: cell-based, human; conditions: WM164, 60 min incubation; mean (95% CI), n = 5; >Max Conc. = not reaching the sensitive range for the applied concentrations
Protocol: as §1, §2, §3, §4, §5, §6

HaCaT [3] = assay: as above; assay type: cell-based, human; conditions: 60 min incubation, mean (95% CI), n = 5, >Max Conc. = not reaching the sensitive range
Protocol: as §1, §2, §3, §4, §5, §6

[4] = set-up: method as in PubChem; conditions: ref PubChem; cited from earlier work
WM1366 [5] = assay: MTT assay, inhibitory effect of RB in different delivery systems; assay type: cell-based, human
Protocol: as §1
(§7) For the 72-h MTT assay, cells were seeded into flat bottom 96-well cell culture plates in 100 μL of complete culture medium at the initial density of […]. Cells were incubated under 5% CO2 at 37 °C for 24 h for adhering to the wells and medium was then replaced with 100 μL of fresh medium containing treatment solution at the required final concentration. Each concentration was tested in 3 replicates in 3 independent studies and control cells were exposed to the culture medium only.
(§8) The MTT cell viability assay was also used as a proxy measure for cell proliferation. Cells were plated in 96-well culture plates, at a density of 8000 cells per well in 100 μL of medium and incubated for 24 h. Treatment solutions of active drug in milli-Q® water or incorporating in SEME were prepared in cell culture medium immediately before use and added in a volume of 100 μL at desired final concentrations. After a specific period, cell viability was evaluated by MTT assay. All experiments were performed in triplicate.
as §6

[6] = test system: primary skin fibroblast cells; assay: as above; assay type: cell-based, human
Protocol: as §1, §7, §8, §6

WM164 [7] = assay: as above; assay type: cell-based, human
Protocol: as §1, §7, §8, §6

D24 [8] = assay: as above; assay type: cell-based, human
Protocol: as §1, §7, §8, §6

HaCaT [9] = assay: as above; assay type: cell-based, human
Protocol: as §1, §7, §8, §6

WM1366 [10] = assay: Cell cycle analysis by flow cytometry (PI staining, sub G0G1); assay type: cell-based, human; conditions: WM1366, 50 µM RB, 24-h treatment; untreated 0.89
Protocol: (§9) Apoptotic cells were detected using Propidium Iodide (PI) staining of treated cells followed by flow cytometry to detect the sub-G1 peak. It has been reported that small segments of DNA caused by DNA fragmentation can be eluted following incubation in a hypotonic phosphate-citrate buffer. When stained with a quantitative DNA binding dye such as PI, cells that have lost DNA will take up less stain and will appear to the left of the G1 peak.
(§10) Briefly, melanoma cells were cultured overnight in a 6-well plate to subconfluence and treated with RB (50 µM) for 24 h. Floating and adherent cells were harvested by a trypsin-based method and fixed by ice cold 70% ethanol. Cells were incubated at 4 °C for at least 24 h in the dark and stained using 70 μM Propidium Iodide in 500 µl of a 38-mM hypotonic tri-sodium citrate buffer supplemented with 5 μg/mL RNase A before flow cytometric analysis using a FACScan. […]
(§11) 6. Cell Cycle Analysis by Flow Cytometry
(§12) After determining that RB decreased cell viability of human skin melanoma cells in a dose-dependent manner, the mechanism of cell death was investigated by flow cytometry. As RB-induced cell death was evident upon exposure to concentrations >50 μM, the cells were treated with 50-μM RB in water, SEME+PG and SEME-PG for 24 h for cell cycle analysis. […]
(§13) increases in apoptotic cell populations when cells were treated with RB-loaded SEMEs compared to […]
(§14) selective cell death mechanism could be a key for an effective antimelanoma drug.
(§15) Figure S7. Cell cycle histograms after RB treatment. RB induces apoptosis in melanoma cells. Flow cytometry histograms of apoptosis assays by the PI method. Cells were treated with 50 μM of RB incorporated in different delivery systems for 24 h. The SubG0G1 region (shown by asterisks) indicates the presence of apoptotic cells induced in melanoma cells treated with RB incorporated in SEMEs.
(§16) The percentages of apoptotic cell populations in cancerous and non-cancerous cells are shown in […]
(§17) Table 4 of the manuscript. […]
(§18) with RB loaded in a SEME containing PG.

Fibroblast = assay: as above; assay type: cell-based, human; conditions: 50 µM RB, 24-h treatment, untreated 0.00
Protocol: as §9, §10, §11, §12, §13, §14, §15, §16, §17, §18

WM164 [11] = assay: as above; assay type: cell-based, human; conditions: WM164, 50 µM RB, 24-h treatment; untreated 3.94
Protocol: as §9, §10, §11, §12, §13, §14, §15, §16, §17, §18

D24 [12] = assay: as above; assay type: cell-based, human; conditions: D24, 50 µM RB, 24-h treatment; untreated 2.54
Protocol: as §9, §10, §11, §12, §13, §14, §15, §16, §17, §18

HaCaT [13] = assay: as above; assay type: cell-based, human; conditions: 50 µM RB, 24-h treatment, untreated 1.07
Protocol: as §9, §10, §11, §12, §13, §14, §15, §16, §17, §18

[14] = test system: WM164, WM1366, D24, HaCaT and fibroblast cells; assay: MTT cell viability assay of excipients, all tested cell lines together; assay type: cell-based, human; conditions: 60 min MTT; maximum concentration used 10 (v/v %)
Protocol: To exclude any toxic effect of the blank SEMEs and their constituents on human skin cells, an MTT cell viability test was performed based on the original protocol. In this assay, the yellow tetrazolium salt MTT is reduced to insoluble purple formazan crystals by metabolically live cells. After 60 min incubation of treated cells, the excipient-containing medium was removed, and 100 μL of MTT in PBS (5 mg/mL) diluted 1:10 in medium was then added. Plates were further incubated in the dark for 2–3 h, after which time the wells were emptied and the purple formazan was dissolved by addition of 200 μL of DMSO to each well. Plates were located in a shaker for 5 min at room temperature and the absorbance of the solutions in the wells was measured at 570 nm using a microplate reader (Multiskan™ FC Microplate Photometer). The impact of each treatment was determined as the percentage of reduced tetrazolium salt against the control cells (untreated cells with medium only). […] The IC50 value for each treatment concentration was calculated from the dose–response curves plotted in GraphPad Prism 7 (GraphPad Software Inc. California, USA) with log (treatment concentration) on the x-axis and percentage survival on the y-axis. […] All IC50 values were expressed as v/v (%).

[15] = test system: primary skin fibroblast cells; assay: MTT cell viability assay of SEMEs and excipients (60 min); assay type: cell-based, human; conditions: 60 min incubation, mean (95% CI), n = 5, >Max Conc. = not reaching the sensitive range
Protocol: as §1, §2, §3, §4, §5, §6

D24 [16] = assay: as above; assay type: cell-based, human; conditions: D24, 60 min incubation; mean (95% CI), n = 5; >Max Conc. = not reaching the sensitive range
Protocol: as §1, §2, §3, §4, §5, §6

## CC(O)CO (centres unmarked) [PG, propylene glycol]
WM1366 [1]
  IC50: >Max Conc.
WM164 [2]
  IC50: >Max Conc.
HaCaT [3]
  IC50: >Max Conc.

## O=C([O-])c1c(Cl)c(Cl)c(Cl)c(Cl)c1-c1c2cc(I)c(=O)c(I)c-2oc2c(I)c([O-])c(I)cc12.[Na+].[Na+] [RB, 4,5,6,7-tetrachloro-2, 4′, 5′, 7--tetraiodofluorescein disodium salt]
[4]
  log P: 7.6
WM1366 [5]; RB and encapsulated RB, WM1366, 48 h incubation, concentration of RB, mean (95% CI), n = minimum of 4, read-out: IC50
  IC50: 98.9 µM
WM1366 [5]; RB aqueous solution, WM1366, 24 h
  IC50: >Max Conc.
WM1366 [5]; RB aqueous solution, WM1366, 48 h (Table 2), read-out: IC50
  IC50: 110 µM
WM1366 [5]; RB aqueous solution, WM1366, 72 h, read-out: IC50
  IC50: ~114 µM
[6]; RB and encapsulated RB, 48 h incubation, concentration of RB, mean (95% CI), n = minimum of 4
  IC50: 188 µM
[6]; RB aqueous solution, 24 h
  IC50: 238 µM
[6]; RB aqueous solution, 48 h (Table 2)
  IC50: 459 µM
[6]; RB aqueous solution, 72 h
  IC50: 108 µM
WM164 [7]; RB and encapsulated RB, WM164, 48 h incubation, concentration of RB, mean (95% CI), n = minimum of 4, vehicle concentration constant
  IC50: 103 µM
WM164 [7]; RB aqueous solution, WM164, 24 h
  IC50: 112 µM
WM164 [7]; RB aqueous solution, WM164, 48 h (Table 2)
  IC50: 107 µM
WM164 [7]; RB aqueous solution, WM164, 72 h
  IC50: 109 µM
D24 [8]; RB and encapsulated RB, D24, 48 h incubation, concentration of RB, mean (95% CI), n = minimum of 4
  IC50: 45.6 µM
D24 [8]; RB aqueous solution, D24, 24 h
  IC50: 131 µM
D24 [8]; RB aqueous solution, D24, 48 h (Table 2)
  IC50: 70 µM
D24 [8]; RB aqueous solution, D24, 72 h
  IC50: 27.3 µM
HaCaT [9]; RB and encapsulated RB, 48 h incubation, concentration of RB, mean (95% CI), n = minimum of 4, read-out: IC50
  IC50: 153 µM
HaCaT [9]; RB aqueous solution, 24 h, read-out: IC50
  IC50: 2250 µM
HaCaT [9]; RB aqueous solution, 48 h (Table 2), read-out: IC50
  IC50: 221 µM
HaCaT [9]; RB aqueous solution, 72 h
  IC50: >Max Conc.
WM1366 [10]
  Apoptotic Cells % (Sub G0G1): 2.29%
Fibroblast
  Apoptotic Cells % (Sub G0G1): 0.99%
WM164 [11]
  Apoptotic Cells % (Sub G0G1): 6.69%
D24 [12]
  Apoptotic Cells % (Sub G0G1): 2.66%
HaCaT [13]
  Apoptotic Cells % (Sub G0G1): 1.15%

## CCOCCOCCO [Transcutol®, diethylene glycol monoethyl ether]
[14]
  IC50, range over all the cell lines: ≥ 4.55 v/v (%)
WM1366 [1]
  IC50: >Max Conc.
[15]
  IC50: >Max Conc.
WM164 [2]
  IC50: ~5.6 (very wide) v/v %
D24 [16]
  IC50: 4.55 (3.1-8.2) v/v %
HaCaT [3]
  IC50: 5.75 (very wide) v/v %

Source: PMC7600403, “Development of an Oil-in-Water Self-Emulsifying Microemulsion for Cutaneous Delivery of Rose Bengal: Investigation of Anti-Melanoma Properties” (Pharmaceutics, 2020)
